Assay results published in paper PMC3652012 (Neuropharmacology, 2012).
Read-outs that look alike come from different tables or passages of the source.

Legend:
[1] = test system: GABAA receptor-mediated IPSCs in dentate granule cells; assay: Whole-cell recording of evoked monosynaptic IPSCs in hippocampal slices; assay type: cell-based, rat; conditions: n=5; for 50% decay time of evoked IPSC: relative to control before drug; for amplitude of evoked IPSC: relative to control, p>0.05
[2] = target: recombinant α1β3 GABAA receptors (Rattus norvegicus, UniProt P62813+P63079); assay: Whole-cell patch clamp of transfected HEK-293T cells; conditions: 10 μM co-applied with EC5–10 GABA
Chain of recombinant α1β3 GABAA receptors (P62813 28-455): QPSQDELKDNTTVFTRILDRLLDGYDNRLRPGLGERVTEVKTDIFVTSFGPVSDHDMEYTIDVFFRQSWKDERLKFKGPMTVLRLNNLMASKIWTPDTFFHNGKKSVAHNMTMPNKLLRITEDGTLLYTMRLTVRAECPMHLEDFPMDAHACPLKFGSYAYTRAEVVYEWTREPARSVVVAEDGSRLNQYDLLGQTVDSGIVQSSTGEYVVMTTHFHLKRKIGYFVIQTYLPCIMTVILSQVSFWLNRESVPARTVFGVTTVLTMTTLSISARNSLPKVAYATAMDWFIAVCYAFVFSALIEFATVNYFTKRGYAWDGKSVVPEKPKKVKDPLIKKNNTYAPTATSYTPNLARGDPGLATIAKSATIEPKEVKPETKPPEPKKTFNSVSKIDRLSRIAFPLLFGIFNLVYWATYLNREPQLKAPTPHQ
Chain of recombinant α1β3 GABAA receptors (P63079 26-473): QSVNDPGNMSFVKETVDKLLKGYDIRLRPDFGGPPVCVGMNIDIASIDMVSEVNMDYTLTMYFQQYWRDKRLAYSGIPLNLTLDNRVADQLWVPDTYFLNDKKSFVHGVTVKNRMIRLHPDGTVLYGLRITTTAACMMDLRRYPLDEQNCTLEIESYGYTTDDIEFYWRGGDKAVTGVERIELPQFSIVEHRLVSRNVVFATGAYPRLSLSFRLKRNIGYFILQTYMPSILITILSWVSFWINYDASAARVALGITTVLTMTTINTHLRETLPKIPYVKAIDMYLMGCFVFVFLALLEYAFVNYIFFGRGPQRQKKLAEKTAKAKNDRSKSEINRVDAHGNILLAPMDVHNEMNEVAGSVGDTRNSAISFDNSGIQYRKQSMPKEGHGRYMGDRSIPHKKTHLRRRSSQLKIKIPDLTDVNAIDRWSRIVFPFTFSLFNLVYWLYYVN

[3] = target: recombinant α1β3δ GABAA receptors (Rattus norvegicus, UniProt P18506+P62813+P63079); assay: as above; conditions: for effect on peak response to saturating GABA: 10 μM modulator with 1 mM GABA, whole-cell, −50 mV
Chain of recombinant α1β3δ GABAA receptors (P62813 28-455): as the sequence (P62813 28-455) above
Chain of recombinant α1β3δ GABAA receptors (P63079 26-473): as the sequence (P63079 26-473) above
Chain of recombinant α1β3δ GABAA receptors (P18506 17-449 limits assumed): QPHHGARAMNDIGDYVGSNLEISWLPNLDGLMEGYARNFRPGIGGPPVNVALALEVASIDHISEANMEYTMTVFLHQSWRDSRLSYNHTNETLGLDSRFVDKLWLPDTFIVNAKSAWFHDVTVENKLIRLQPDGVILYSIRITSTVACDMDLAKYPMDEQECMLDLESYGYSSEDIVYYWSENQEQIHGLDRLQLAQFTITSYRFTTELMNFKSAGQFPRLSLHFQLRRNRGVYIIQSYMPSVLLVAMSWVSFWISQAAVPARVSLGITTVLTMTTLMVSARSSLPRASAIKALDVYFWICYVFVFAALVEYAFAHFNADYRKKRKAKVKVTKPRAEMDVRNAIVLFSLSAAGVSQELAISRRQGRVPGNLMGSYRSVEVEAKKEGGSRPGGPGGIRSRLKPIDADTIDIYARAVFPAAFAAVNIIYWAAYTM

GABAA receptors = assay: Direct activation of GABAA receptors in the absence of GABA; assay type: cell-based
[4] = test system: recombinant GABAA receptors: six α subtypes with β3 and γ2, three β subtypes with α1 and γ2, three γ subtypes with α1 and β3; assay: Whole-cell patch clamp, receptors with varying α, β or γ subtype; conditions: 10 μM co-applied with EC5–10 GABA for each isoform
[5] = target: T1, recombinant α1β3γ2 GABAA receptors (Rattus norvegicus, UniProt P18508+P62813+P63079); assay: Outside-out macropatch recording, deactivation after brief GABA application; conditions: for increase of weighted mean deactivation rate / weighted mean deactivation rate in presence of modulator: 10 μM modulator co-applied with 1 mM GABA for 5 msec, −70 mV
T1 sequence (P62813 28-455): as the sequence (P62813 28-455) above
T1 sequence (P63079 26-473): as the sequence (P63079 26-473) above
T1 sequence (P18508 39-466): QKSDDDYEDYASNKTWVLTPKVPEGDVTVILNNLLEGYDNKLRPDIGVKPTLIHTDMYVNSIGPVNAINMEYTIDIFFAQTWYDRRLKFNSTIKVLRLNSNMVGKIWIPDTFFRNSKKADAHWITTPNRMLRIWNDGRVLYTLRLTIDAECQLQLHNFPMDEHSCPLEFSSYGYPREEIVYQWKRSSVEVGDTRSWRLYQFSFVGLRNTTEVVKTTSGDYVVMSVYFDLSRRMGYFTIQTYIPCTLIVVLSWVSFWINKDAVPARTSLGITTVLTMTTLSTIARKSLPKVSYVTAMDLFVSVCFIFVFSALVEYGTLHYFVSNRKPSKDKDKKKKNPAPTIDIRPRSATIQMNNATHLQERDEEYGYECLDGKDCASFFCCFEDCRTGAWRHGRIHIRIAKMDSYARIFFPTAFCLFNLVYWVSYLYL

[6] = test system: extra-synaptic GABAA receptors in dentate granule neurons; assay type: cell-based, rat; conditions: CNQX, D-APV, TTX present
[7] = target: α1(S269I)β3γ2 GABAA receptors (Rattus norvegicus, UniProt P18508+P62813+P63079, S296I); assay: Whole-cell patch clamp, point-mutated receptor; assay type: cell-based; conditions: compared to wild-type α1β3γ2
Chain of α1(S269I)β3γ2 GABAA receptors (P62813 28-455 S296I): as the sequence (P62813 28-455) above, with S269I counted along it
Chain of α1(S269I)β3γ2 GABAA receptors (P63079 26-473): as the sequence (P63079 26-473) above
Chain of α1(S269I)β3γ2 GABAA receptors (P18508 39-466): as the sequence (P18508 39-466) above

[8] = target: α1β3(M286W)γ2 GABAA receptors (Rattus norvegicus, UniProt P18508+P62813+P63079, M311W); assay: Whole-cell patch clamp, point-mutated receptor; assay type: cell-based; conditions: compared to wild-type α1β3γ2
Chain of α1β3(M286W)γ2 GABAA receptors (P62813 28-455): as the sequence (P62813 28-455) above
Chain of α1β3(M286W)γ2 GABAA receptors (P63079 26-473 M311W): as the sequence (P63079 26-473) above, with M286W counted along it
Chain of α1β3(M286W)γ2 GABAA receptors (P18508 39-466): as the sequence (P18508 39-466) above

[9] = target: recombinant α4β3δ GABAA receptors (Rattus norvegicus, UniProt P18506+P28471+P63079); assay: Whole-cell patch clamp of transfected HEK-293T cells; conditions: 10 μM co-applied with EC5–10 GABA
Chain of recombinant α4β3δ GABAA receptors (P28471 36-552): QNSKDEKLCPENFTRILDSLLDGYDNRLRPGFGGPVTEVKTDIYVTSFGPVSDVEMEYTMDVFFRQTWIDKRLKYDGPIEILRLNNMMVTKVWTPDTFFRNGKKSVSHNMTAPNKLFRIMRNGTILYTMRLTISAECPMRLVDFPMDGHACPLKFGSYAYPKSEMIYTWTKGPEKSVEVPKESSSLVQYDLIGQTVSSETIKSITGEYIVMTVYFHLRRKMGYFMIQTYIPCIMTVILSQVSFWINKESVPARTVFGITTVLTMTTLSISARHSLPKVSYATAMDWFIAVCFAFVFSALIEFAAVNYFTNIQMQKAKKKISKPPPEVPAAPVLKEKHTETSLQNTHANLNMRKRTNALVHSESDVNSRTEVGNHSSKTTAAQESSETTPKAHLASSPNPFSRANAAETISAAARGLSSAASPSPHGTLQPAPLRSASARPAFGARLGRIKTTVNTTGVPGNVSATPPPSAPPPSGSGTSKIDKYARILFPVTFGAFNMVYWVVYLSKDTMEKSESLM
Chain of recombinant α4β3δ GABAA receptors (P63079 26-473): as the sequence (P63079 26-473) above
Chain of recombinant α4β3δ GABAA receptors (P18506 17-449 limits assumed): as the sequence (P18506 17-449 limits assumed) above

[10] = test system: mIPSCs in dentate granule neurons; assay type: cell-based, rat; conditions: 1 μM TTX
[11] = target: T1, recombinant α1β3γ2 GABAA receptors; assay: Whole-cell patch clamp of transfected HEK-293T cells; conditions: for effect on peak amplitude of the response to saturating GABA: 10 μM modulator with 1 mM GABA, whole-cell; for effect on peak amplitude of the response to saturating GABA / maximum enhancement of the GABA response: −50 mV; for maximum enhancement of the GABA response: co-applied 5 sec with EC5–10 GABA (1 μM), response to GABA alone = 100%
[12] = target: α1(Y410W)β3γ2 GABAA receptors (Rattus norvegicus, UniProt P18508+P62813+P63079, Y437W); assay: Whole-cell patch clamp, point-mutated receptor; assay type: cell-based; conditions: compared to wild-type α1β3γ2
Chain of α1(Y410W)β3γ2 GABAA receptors (P62813 28-455 Y437W): as the sequence (P62813 28-455) above, with Y410W counted along it
Chain of α1(Y410W)β3γ2 GABAA receptors (P63079 26-473): as the sequence (P63079 26-473) above
Chain of α1(Y410W)β3γ2 GABAA receptors (P18508 39-466): as the sequence (P18508 39-466) above

[13] = target: α1(T260F)β3γ2 GABAA receptors (Rattus norvegicus, UniProt P18508+P62813+P63079, T287F); assay: Whole-cell patch clamp, point-mutated receptor; assay type: cell-based; conditions: compared to wild-type α1β3γ2
Chain of α1(T260F)β3γ2 GABAA receptors (P62813 28-455 T287F): as the sequence (P62813 28-455) above, with T260F counted along it
Chain of α1(T260F)β3γ2 GABAA receptors (P63079 26-473, stated change not applied): as the sequence (P63079 26-473) above
Chain of α1(T260F)β3γ2 GABAA receptors (P18508 39-466): as the sequence (P18508 39-466) above

[14] = target: α1(Q240W)β3γ2 GABAA receptors (Rattus norvegicus, UniProt P18508+P62813+P63079, Q268W); assay: Whole-cell patch clamp, point-mutated receptor; assay type: cell-based; conditions: compared to wild-type α1β3γ2
Chain of α1(Q240W)β3γ2 GABAA receptors (P62813 28-455 Q268W): as the sequence (P62813 28-455) above, with Q241W counted along it
Chain of α1(Q240W)β3γ2 GABAA receptors (P63079 26-473): as the sequence (P63079 26-473) above
Chain of α1(Q240W)β3γ2 GABAA receptors (P18508 39-466): as the sequence (P18508 39-466) above

[15] = target: α1β3(T256F)γ2 GABAA receptors (Rattus norvegicus, UniProt P18508+P62813+P63079, T281F); assay: Whole-cell patch clamp, point-mutated receptor; assay type: cell-based; conditions: compared to wild-type α1β3γ2
Chain of α1β3(T256F)γ2 GABAA receptors (P62813 28-455, stated change not applied): as the sequence (P62813 28-455) above
Chain of α1β3(T256F)γ2 GABAA receptors (P63079 26-473 T281F): as the sequence (P63079 26-473) above, with T256F counted along it
Chain of α1β3(T256F)γ2 GABAA receptors (P18508 39-466): as the sequence (P18508 39-466) above

[16] = target: α1β3(Y442W)γ2 GABAA receptors (Rattus norvegicus, UniProt P18508+P62813+P63079, Y467W); assay type: cell-based; conditions: compared to wild-type α1β3γ2
Chain of α1β3(Y442W)γ2 GABAA receptors (P62813 28-455): as the sequence (P62813 28-455) above
Chain of α1β3(Y442W)γ2 GABAA receptors (P63079 26-473 Y467W): as the sequence (P63079 26-473) above, with Y442W counted along it
Chain of α1β3(Y442W)γ2 GABAA receptors (P18508 39-466): as the sequence (P18508 39-466) above

[17] = honokiol (Fig 1: 30–60 μM), n=6
[18] = magnolol 30 μM (Fig 1: 30–60 μM), n=7

Row | Structure (SMILES) | response (potentiation) of receptors lacking γ or δ [2] | EC50 [3] [nM] | effect on peak response to saturating GABA [3] | concentration at which agonist activity (direct activation) was observed (GABAA receptors) | potentiation across receptor isoforms (α, β, γ subtype selectivity) [4] | increase of weighted mean deactivation rate [5] [%] | weighted mean deactivation rate in presence of modulator [5] [ms] | impact of mutation on potentiation [7] | impact of mutation on potentiation [8] | enhancement of the GABA response [9] | EC50 [11] [nM] | effect on peak amplitude of the response to saturating GABA [11] | maximum enhancement of the GABA response [11] [%] | impact of mutation on potentiation [12] | impact of mutation on modulation [13] | impact of mutation on modulation [14] | impact of mutation on modulation [15] | impact of mutation on potentiation [16] | other results
1 | C=CCc1ccc(O)c(-c2ccc(O)c(CC=C)c2)c1 [honokiol, 3,5′-diallyl-4,2′-dihydroxybiphenyl] | responded to a level comparable to the γ-containing receptors | 3800 ± 410 | nearly doubled | above 10 μM | potentiated to a similar degree, with no apparent selectivity among the subtypes | 147.2 | 113.5 ± 21.0 | retained wild-type potentiation | retained wild-type potentiation | large enhancement, similar to that of α1β3δ | 1170 ± 200 | no effect | 483.4±64.4 | retained wild-type potentiation | neither of these mutations had any impact | no impact | neither of these mutations had any impact | retained wild-type potentiation | 50% decay time of evoked IPSC ([1]; honokiol 60 μM bath applied): 299.5±16.6%; amplitude of evoked IPSC ([1]; honokiol 60 μM bath applied): 113.3±25.0%; enhancement of tonic GABAergic current [6, 17]: 351.2±79.0%; mIPSC amplitude ([10]; honokiol (Fig 1: 30–60 μM)): not affected; mIPSC frequency [10, 17]: 378.9±46.8%
2 | C=CCc1ccc(O)c(-c2cc(CC=C)ccc2O)c1 [magnolol, 5,5′-diallyl-2,2′-dihydroxybiphenyl] | responded to a level comparable to the γ-containing receptors | 3400 ± 700 | nearly doubled | above 10 μM | potentiated to a similar degree, with no apparent selectivity among the subtypes | 171.8 | 104.3 ± 16.2 | retained wild-type potentiation | retained wild-type potentiation | large enhancement, similar to that of α1β3δ | 1240 ± 210 | no effect | 467.6±24.6 | retained wild-type potentiation | neither of these mutations had any impact | no impact | neither of these mutations had any impact | retained wild-type potentiation | 50% decay time of evoked IPSC ([1]; magnolol 30 μM bath applied): 267.7±7.9%; amplitude of evoked IPSC ([1]; magnolol 30 μM bath applied): 105.7±11.2%; % area of the slower deactivation component in presence of modulator ([5]; 10 μM co-applied with 1 mM GABA for 5 msec, GABA alone 31.5±5.0): 41.8±8.1%; slow τ of deactivation in presence of modulator ([5]; 10 μM co-applied with 1 mM GABA for 5 msec, GABA alone 161.1±29.6): 228.4 ± 41.3 ms; increase of tonic GABAergic current [6, 18]: 402.5±61.7%; mIPSC amplitude ([10]; magnolol 30 μM (Fig 1: 30–60 μM)): not affected; mIPSC frequency [10, 18]: 476.2±108.5%
